Laboratory results as given in PMC10201669, “A novel coumarin derivative DBH2 inhibits proliferation and induces apoptosis of chronic myeloid leukemia cells” (Genes & Diseases, 2022).
≈ marks a conversion by molar mass, not a printed value.

Assays:
[1] = system: K562 cells; assay: CCK-8 cell viability assay, K562 cells; format: cell-based, human; details: CCK-8, 48 h; for IC50: Homo sapiens, K562
Procedure: (§1) Human CML cell line K562 cells and human umbilical vein endothelial cells (HUVECs) were purchased from ATCC (Manassas, USA). Drug resistant K562 (K562R) cells were provided by the Chinese Academy of Medical Science Hematology Institute. The cells were cultured in RPMI-1640 medium containing 10% fetal bovine serum (FBS) in cell culture flasks under a humidified 5% CO2 and 95% air atmosphere at 37 °C. Bone marrow (BM) cells from mice or patients were cultured in DMEM/F12 medium supplemented with 20% FBS.
(§2) Cell viability was examined using the cell counting kit-8 (CCK-8) assay (YEASEN China). In brief, cells (1 × 10^4 cells/well) in confluent 96-well cell culture plates were treated with different concentrations of coumarin derivative (1, 5, 10, 25, 50, 100, 200, and 400 μg/mL) for 48 h. Then 10 μL CCK-8 reagents were added into every well for 2 h of incubation. Optical density (OD) was detected using the microplate reader (BioTek, Germany). The values were then fit into a non-linear regression curve and the IC50 was calculated using GraphPad Prism.

[2] = system: K562R cells; assay: CCK-8 cell viability assay, drug resistant K562 cells; format: cell-based, human; details: CCK-8, 48 h; for IC50: Homo sapiens, K-562R
Procedure: as §1, §2

[3] = system: HUVECs; assay: CCK-8 cell viability assay (cytotoxicity), HUVECs; format: cell-based, human; details: CCK-8, 48 h; for IC50: Homo sapiens, HUVEC
Procedure: as §1, §2

[4] = system: CD34+ hematopoietic stem and progenitor cells (HSPCs); assay: CCK-8 cell viability assay (cytotoxicity), HSPCs; format: cell-based, human; details: CCK-8, 48 h; for IC50: Homo sapiens
Text: (§3) Human CD34^+ HSCPs were obtained from the specimens of consenting healthy donors or CML patients at Xijing Hospital, and purified using Human Whole Blood CD34 Positive Selection Kit II (StemCell Technologies, China). Briefly, the human bone marrow was homogenized, and the top layering with Ficoll-Paque (GE Healthcare, USA) interphase containing immune cells and CD34^+ HSPCs was collected and washed with PBS, then CD34^+ HSPCs were purified according to the protocol of EasySep human CD34 positive selection kit (StemCell Technologies, China). CD34^+ cells were cultured in StemSpan-ACF medium II supplemented with 50 ng/mL human stem cell factor, 10 ng/mL thrombopoietin, 20 ng/mL FMS-related tyrosine kinase 3 ligand, 20 ng/mL interleukin-6 and 1% penicillin-streptomycin solution.
as §2

[5] = system: K562 cells; assay: Annexin V-FITC/PI flow cytometry, apoptosis of K562 cells; format: cell-based, human; details: 50, 100, 200 μg/mL, 24 h, vs vehicle
Procedure: (§4) Apoptotic cells were quantified with an FITC Annexin V Apoptosis detection kit (Becton Dickinson Biosciences, USA) according to manufacturer’s protocol. Briefly, cells at 1 × 10^5 cells/mL were incubated with various concentrations (50, 100 and 200 μg/mL) of compound DBH2 for 24 h at 37 °C. Cells were harvested and re-suspended in the binding buffer, then stained with 5 μL Annexin V-FITC and 5 μL propidium iodide (PI) for 15 min at room temperature in the dark. The apoptotic index was immediately determined by FACSCalibur Flow Cytometer (Becton Dickinson Biosciences, CA). For the cell cycle, K562 cells were harvested and fixed in 75% ethanol overnight at 4 °C, then re-suspended in pre-cooling PBS containing 0.1 mg/mL RNase and 0.02 mg/mL PI for 30 min at 37 °C. After the treatment of compound DBH2 or 1% DMSO as vehicle control, the cell cycle was analyzed using the flow cytometry and Cell Quest software (BD Biosciences, USA).

[6] = system: K562 cells; assay: Cell cycle distribution by flow cytometry, K562 cells; format: cell-based, human; details: K562, 100 μg/mL; vehicle 33.9%
Procedure: as §4

[7] = system: K562 cells; assay: Transmission electron microscopy of K562 cells; format: cell-based, human; details: K562, 100 μg/mL, post 24 h
Procedure: CML cells were seeded and grown at […] in three flasks.

[8] = system: bone marrow cells from SCL-tTA-BCR/ABL transgenic model mice; assay: Annexin V/PI apoptosis, bone marrow cells from SCL-tTA-BCR/ABL transgenic model mice; format: cell-based, mouse; details: 50, 100, 200 μg/mL
Procedure: as §1
as §4, with “For the cell cycle, K562 cells were harvested and fixed in 75% ethanol overnight at 4 °C, then re-suspended in pre-cooling PBS containing 0.1 mg/mL RNase and 0.02 mg/mL PI for 30 min at 37 °C.” left out, “USA). […]” for “USA).”

[9] = system: bone marrow cells of recipients (BCR/ABL model mice); assay: Annexin V/PI apoptosis, bone marrow cells of BMT recipients, DBH2 with or without imatinib; format: cell-based, mouse; details: DBH2 at various concentrations with or without 1 μM imatinib
Procedure: (§5) The SCL-tTA-BCR/ABL transgenic model mice were used as donor, and sub-lethally irradiated (850 rad) wild type mice were use as receiver, once the bone marrow transplantation (BMT) was performed from the donor mice to the recipient mice, the CML-like model mice was established. […] Caspase-3 knock-out mice were kindly gifted from the lab of Professor Hua Han, the Fourth Military Medical University.

[10] = system: CML-like model mice (recipients of SCL-tTA-BCR/ABL bone marrow); assay: Survival of CML-like model mice after bone marrow transplantation; format: in vivo, mouse; details: DBH2 100 mg/kg, 32 days with two-day interval post-BMT, intragastric
Procedure: as §5

[11] = system: bone marrow cells from CML patients; assay: Annexin V/PI apoptosis, bone marrow cells from CML patients; format: cell-based, human
Procedure: as §1
The ages of three male CML patients […], all of them were newly diagnosed chronic phase, and before starting TKI therapy. Informed consent was obtained from all participants. This study adhered to the World Medical Association’s Declaration of Helsinki and its amendments for Ethical Human Research including confidentiality, privacy, and data management.
(§6) Apoptotic cells were quantified with an FITC Annexin V Apoptosis detection kit (Becton Dickinson Biosciences, USA) according to manufacturer’s protocol. […] The apoptotic index was immediately determined by FACSCalibur Flow Cytometer (Becton Dickinson Biosciences, CA). […] After the treatment of compound DBH2 or 1% DMSO as vehicle control, the cell cycle was analyzed using the flow cytometry and Cell Quest software (BD Biosciences, USA).

[12] = system: CD34+ LSCs from CML patients; assay: Apoptosis of CD34+ LSCs from CML patients; format: cell-based, human; details: 100 μg/mL, 24 h
Text: as §3
as §6, with “protocol. Briefly, cells at 1 × 10^5 cells/mL were incubated with various concentrations (50, 100 and 200 μg/mL) of compound DBH2 for 24 h at 37 °C.” for “protocol.”

[13] = system: STAT3; assay: Quantitative RT-PCR, STAT3 mRNA in K562 cells; format: cell-based, human; details: K562, 50, 100, 200 μg/mL
Procedure: (§7) RNA was extracted from cells using an RNA extraction kit according to the manufacturer protocol. After reverse transcription, the real-time PCR was performed for three independent experiments with a 7300 real-time PCR system (Applied Biosystems, USA) using SYBR Premix ExTaq (Takara, China). The relative expression of genes was calculated by the 2^-△△Ct method, with normalization to GAPDH levels. Amplified products were visualized with an Alpha Imager 2200 digital imaging system (Alpha Innotech, USA). The primers (forward and backward) used were depicted in Table S1.

[14] = system: STAT5; assay: Quantitative RT-PCR, STAT5 mRNA in K562 cells; format: cell-based, human; details: K562, 50, 100, 200 μg/mL
Procedure: as §7

[15] = system: bone marrow myeloid cells from wild type mice; assay: Annexin V/PI apoptosis, bone marrow myeloid cells from WT mice (Fig 5); format: cell-based, mouse; details: WT, 50, 100, 200 μg/mL, 24 h
Procedure: as §4
(§8) The SCL-tTA-BCR/ABL transgenic model mice were used as donor, and sub-lethally irradiated (850 rad) wild type mice were use as receiver, once the bone marrow transplantation (BMT) was performed from the donor mice to the recipient mice, the CML-like model mice was established. After 8 weeks, the bone marrow reconstitution was confirmed, and the effect of treatments to the survival rates of recipient mice was observed. […]

[16] = system: bone marrow myeloid cells from caspase-3 gene knock-out mice; assay: Annexin V/PI apoptosis, bone marrow myeloid cells from caspase-3 knock-out mice; format: cell-based, mouse
Procedure: as §4, §8

[17] = system: PARP1; assay: Western blot, PARP1 protein in K562 cells; format: cell-based, human; details: K562, 100 and 200 μg/mL, vs untreated control
Procedure: (§9) Cells were washed with Tris-buffered saline (TBS) and lysed by adding 100 μL of RIPA Lysis Buffer System containing protease inhibitors. Then, cell extraction was subjected to gel electrophoresis and transferred onto a polyvinylidene difluoride membrane (Millipore, Germany). After blocking with 3% BSA in TBS for 2 h, the membrane was probed with primary antibodies overnight at 4 °C, the antibody against PARP1 (Proteintech, USA) or ROCK1 proteins (Proteintech, USA) was diluted at 1:1000, and the antibody for GAPDH (Abcam, UK) was diluted at 1:1000. After secondary antibodies labeled with infrared dyes were added, the signals were visualized using the Odyssey Infrared Imaging System (Biosciences, USA).

[18] = system: ROCK1; assay: Western blot, ROCK1 protein in K562 cells; format: cell-based, human; details: K562, 50, 100, 200 μg/mL
Procedure: as §9

[19] = system: human cervical cancer HeLa cells; set-up: method as in PMID 18210747; details: G0/G1 arrest and apoptosis; cited from earlier work

Structure (SMILES) | IC50 [1] [µg/mL] | IC50 [2] [µg/mL] | IC50 [3] [µg/mL] | IC50 [4] [µg/mL] | also measured
O=c1oc2ccccc2c(O)c1C(c1ccccc1)c1c(O)c2ccccc2oc1=O [DBH1, 3,3′-benzylidene-bis-(4-hydroxycoumarin)] | 31.3 (≈ 75.8 µM) | 33.4 (≈ 81 µM) | 85.7 (≈ 208 µM) | 76.3 (≈ 185 µM) | 
O=c1oc2ccccc2c(O)c1C(c1cc(F)cc(F)c1)c1c(O)c2ccccc2oc1=O [DBH2, 3,3′-(3,5-difluorobenzylidene)-bis-(4-hydroxycoumarin)] | 36.3 (≈ 81 µM) | 38.8 (≈ 86.5 µM) | 232 (≈ 518 µM) | 225 (≈ 502 µM) | apoptosis in CML cells (K562) [5]: trigger significant apoptosis in CML cells with concentration-dependent responses; percentage of cells in the G2/M phase [6]: 41.3%; morphological observation (TEM) [7]: typical apoptotic-body in nuclear appeared; apoptosis in bone marrow cells from CML model mice compared to WT mice [8]: induce the remarkable apoptosis; number of apoptotic cells [9]: ascendant number of apoptotic cells; survival of treated mice [10]: remarkably prolonged about two times; apoptosis of bone marrow cells from CML patients ([11]; 50, 100 and 200 μg/mL): promoted the apoptosis of bone marrow cells from CML patients in dose-dependent manner; induced apoptosis in bone marrow cells from CML patients compared to its effects on CD34+ LSC ([11]; bone marrow cells vs CD34+ LSC): almost twice fold; CD34+ LSCs developed into the apoptotic process [12]: more than twice fold; expression of STAT3 mRNA [13]: inhibit the expression of STAT3 and STAT5 in a dose-dependent manner; expression of STAT5 mRNA [14]: inhibit the expression of STAT3 and STAT5 in a dose-dependent manner; Annexin V positive cells [15]: increasing number of Annexin V positive cells; DBH2-induced apoptosis compared to the cells from wild type mice ([16]; caspase-3 knock-out vs WT): significant less; Annexin V positive cells ([16]; caspase-3 knock-out, 50, 100, 200 μg/mL, 24 h): increasing number of Annexin V positive cells; expression of PARP1 protein [17]: up-regulate the expression of PARP1 significantly; expression of ROCK1 protein [18]: up-regulated the expression of ROCK1 in dose-dependent manner
O=c1oc2ccccc2c(O)c1C(c1cc(Cl)cc(Cl)c1)c1c(O)c2ccccc2oc1=O [DBH3, 3,3′-(3,5-dichlorobenzylidene)-bis-(4-hydroxycoumarin)] | 36.5 (≈ 75.8 µM) | 45.7 (≈ 95 µM) | 52.3 (≈ 109 µM) | 72.4 (≈ 150 µM) | 
O=c1oc2ccccc2c(O)c1C(c1cc(Br)cc(Br)c1)c1c(O)c2ccccc2oc1=O [DBH4, 3,3′-(3,5-dibromobenzylidene)-bis-(4-hydroxycoumarin)] | 36.5 (≈ 64.1 µM) | 39.9 (≈ 69.9 µM) | 88.7 (≈ 155 µM) | 83.1 (≈ 146 µM) | 
COc1cc(OC)cc(C(c2c(O)c3ccccc3oc2=O)c2c(O)c3ccccc3oc2=O)c1 [DBH5, 3,3′-(3,5-dimethoxybenzylidene)-bis-(4-hydroxycoumarin)] | 30.4 (≈ 64.5 µM) | 34.4 (≈ 72.7 µM) | 50.3 (≈ 106 µM) | 46.4 (≈ 98.2 µM) | 
O=c1oc2ccccc2c(O)c1C(c1cc(C(F)(F)F)cc(C(F)(F)F)c1)c1c(O)c2ccccc2oc1=O [DBH6, 3,3′-(3,5-ditrifluoromethylbenzylidene)-bis-(4-hydroxycoum-arin)] |  |  |  |  | IC50, K562 cells [1]: 31.32 µg/mL (≈ 57.1 µM); IC50, K562 R cells [2]: 35.68 µg/mL (≈ 65.1 µM); IC50, HUVECs [3]: 72.42 µg/mL (≈ 132 µM); IC50, HSPCs [4]: 67.75 µg/mL (≈ 124 µM)
COc1cccc2c1C(=O)c1c(O)c3c(c(O)c1C2=O)C[C@@](O)(C(=O)CO)C[C@@H]3O[C@H]1C[C@H](N)[C@H](O)[C@H](C)O1 [Doxorubicin, reference compound] | 16.4 (≈ 30.2 µM) | 24.1 (≈ 44.4 µM) | 8.76 (≈ 16.1 µM) | 8.04 (≈ 14.8 µM) | 
O=c1ccc2ccccc2o1 [coumarin] |  |  |  |  | IC50 [19]: 54.2 µM
